According to patent US20150299219A1, “BICYCLIC PYRAZOLONE COMPOUNDS AND METHODS OF USE” (Calitor Sciences, LLC, priority 2014, published 2015):

Columns and labels:
Type in all cases: biochemical
[1] = target: T1, Axl (h) (Homo sapiens, UniProt P30530); assay: Axl (h) kinase assay
T1 construct: purchased Millipore UK Ltd
T1 sequence (P30530 26-894): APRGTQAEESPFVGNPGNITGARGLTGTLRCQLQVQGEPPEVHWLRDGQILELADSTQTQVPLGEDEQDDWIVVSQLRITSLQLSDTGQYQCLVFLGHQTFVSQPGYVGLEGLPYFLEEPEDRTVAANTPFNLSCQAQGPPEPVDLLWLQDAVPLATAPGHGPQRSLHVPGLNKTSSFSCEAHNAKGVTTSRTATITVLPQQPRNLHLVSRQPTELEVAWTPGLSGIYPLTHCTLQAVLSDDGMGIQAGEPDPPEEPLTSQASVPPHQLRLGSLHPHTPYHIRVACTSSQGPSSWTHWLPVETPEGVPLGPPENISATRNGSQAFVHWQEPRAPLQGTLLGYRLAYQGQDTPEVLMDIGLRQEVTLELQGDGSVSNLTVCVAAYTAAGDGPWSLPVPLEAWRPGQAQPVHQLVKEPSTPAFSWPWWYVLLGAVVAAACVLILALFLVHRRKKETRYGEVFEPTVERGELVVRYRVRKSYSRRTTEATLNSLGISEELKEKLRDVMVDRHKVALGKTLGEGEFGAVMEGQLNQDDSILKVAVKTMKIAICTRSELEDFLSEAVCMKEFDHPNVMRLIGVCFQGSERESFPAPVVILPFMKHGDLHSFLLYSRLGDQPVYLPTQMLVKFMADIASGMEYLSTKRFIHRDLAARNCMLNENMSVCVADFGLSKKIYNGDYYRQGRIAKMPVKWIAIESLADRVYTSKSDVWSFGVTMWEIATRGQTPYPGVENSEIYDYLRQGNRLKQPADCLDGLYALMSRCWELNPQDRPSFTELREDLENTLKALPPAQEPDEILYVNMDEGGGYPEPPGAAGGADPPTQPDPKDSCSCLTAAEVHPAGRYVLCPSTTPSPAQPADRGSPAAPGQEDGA
Procedure: (§1) The above assay procedure can be used to determine the IC50 for inhibition and/or the inhibition constant, Ki. The IC50 is defined as the concentration of compound required to reduce the enzyme activity by 50% under the condition of the assay. The IC50 value is estimated by preparing a 10 point curve using a 1/2 log dilution series (for example, a typical curve may be prepared using the following compound concentrations: 10 μM, 3 μM, 1 μM, 0.3 μM, 0.1 μM, 0.03 μM, 0.01 μM, 0.003 μM, 0.001 μM and 0 μM).
(§2) Axl (h) is incubated with 8 mM MOPS pH 7.0, 0.2 mM EDTA, 250 μM KKSRGDYMTMQIG, 10 mM MgAcetate and [γ-^33P-ATP] (specific activity approx. 500 cpm/pmol, concentration as required). The reaction is initiated by the addition of the MgATP mix. After incubation for 40 minutes at room temperature, the reaction is stopped by the addition of 3% phosphoric acid solution. 10 μL of the reaction is then spotted onto a P30 filtermat and washed three times for 5 minutes in 75 mM phosphoric acid and once in methanol prior to drying and scintillation counting.
(§3) The kinase assays described herein were performed at Millipore UK Ltd, Dundee Technology Park, Dundee DD2 1SW, UK.

[2] = target: T2, Mer (h) (Homo sapiens, UniProt Q12866); assay: Mer (h) kinase assay
T2 construct: purchased Millipore UK Ltd
T2 sequence (Q12866 21-999): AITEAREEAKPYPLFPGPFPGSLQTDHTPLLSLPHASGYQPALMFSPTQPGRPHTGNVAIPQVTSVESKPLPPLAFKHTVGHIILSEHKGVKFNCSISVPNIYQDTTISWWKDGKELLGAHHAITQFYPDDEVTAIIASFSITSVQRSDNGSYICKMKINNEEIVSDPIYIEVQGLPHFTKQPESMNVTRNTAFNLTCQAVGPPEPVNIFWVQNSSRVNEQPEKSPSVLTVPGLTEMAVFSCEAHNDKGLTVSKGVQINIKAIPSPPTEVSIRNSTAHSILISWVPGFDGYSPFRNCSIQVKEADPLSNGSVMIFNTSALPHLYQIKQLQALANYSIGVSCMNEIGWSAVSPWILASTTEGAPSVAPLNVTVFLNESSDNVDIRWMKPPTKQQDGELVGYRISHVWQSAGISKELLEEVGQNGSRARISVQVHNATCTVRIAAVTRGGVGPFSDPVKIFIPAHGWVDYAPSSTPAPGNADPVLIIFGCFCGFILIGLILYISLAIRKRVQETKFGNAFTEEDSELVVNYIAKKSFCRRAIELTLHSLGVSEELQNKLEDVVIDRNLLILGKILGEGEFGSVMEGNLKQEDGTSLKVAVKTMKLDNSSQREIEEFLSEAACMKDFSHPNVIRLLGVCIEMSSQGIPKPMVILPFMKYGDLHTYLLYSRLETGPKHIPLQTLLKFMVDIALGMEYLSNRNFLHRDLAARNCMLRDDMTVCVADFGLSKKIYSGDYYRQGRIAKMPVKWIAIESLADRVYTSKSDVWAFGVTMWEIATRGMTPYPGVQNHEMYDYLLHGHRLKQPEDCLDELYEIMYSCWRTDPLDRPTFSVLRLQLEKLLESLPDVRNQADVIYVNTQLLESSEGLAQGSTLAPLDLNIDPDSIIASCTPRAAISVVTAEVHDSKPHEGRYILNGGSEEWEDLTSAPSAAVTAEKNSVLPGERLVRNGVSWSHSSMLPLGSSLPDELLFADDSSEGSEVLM
Procedure: as §1
as §2, with “Mer” for “Axl”, “EDTA, 30 mM NaCl,” for “EDTA,”, “GGMEDIYFEFMGGKKK,” for “KKSRGDYMTMQIG,”
as §3

[3] = target: T3, c-Met (h) (Homo sapiens, UniProt P08581); assay: c-Met (h) kinase assay
T3 construct: purchased Millipore UK Ltd
T3 sequence (P08581 25-1390): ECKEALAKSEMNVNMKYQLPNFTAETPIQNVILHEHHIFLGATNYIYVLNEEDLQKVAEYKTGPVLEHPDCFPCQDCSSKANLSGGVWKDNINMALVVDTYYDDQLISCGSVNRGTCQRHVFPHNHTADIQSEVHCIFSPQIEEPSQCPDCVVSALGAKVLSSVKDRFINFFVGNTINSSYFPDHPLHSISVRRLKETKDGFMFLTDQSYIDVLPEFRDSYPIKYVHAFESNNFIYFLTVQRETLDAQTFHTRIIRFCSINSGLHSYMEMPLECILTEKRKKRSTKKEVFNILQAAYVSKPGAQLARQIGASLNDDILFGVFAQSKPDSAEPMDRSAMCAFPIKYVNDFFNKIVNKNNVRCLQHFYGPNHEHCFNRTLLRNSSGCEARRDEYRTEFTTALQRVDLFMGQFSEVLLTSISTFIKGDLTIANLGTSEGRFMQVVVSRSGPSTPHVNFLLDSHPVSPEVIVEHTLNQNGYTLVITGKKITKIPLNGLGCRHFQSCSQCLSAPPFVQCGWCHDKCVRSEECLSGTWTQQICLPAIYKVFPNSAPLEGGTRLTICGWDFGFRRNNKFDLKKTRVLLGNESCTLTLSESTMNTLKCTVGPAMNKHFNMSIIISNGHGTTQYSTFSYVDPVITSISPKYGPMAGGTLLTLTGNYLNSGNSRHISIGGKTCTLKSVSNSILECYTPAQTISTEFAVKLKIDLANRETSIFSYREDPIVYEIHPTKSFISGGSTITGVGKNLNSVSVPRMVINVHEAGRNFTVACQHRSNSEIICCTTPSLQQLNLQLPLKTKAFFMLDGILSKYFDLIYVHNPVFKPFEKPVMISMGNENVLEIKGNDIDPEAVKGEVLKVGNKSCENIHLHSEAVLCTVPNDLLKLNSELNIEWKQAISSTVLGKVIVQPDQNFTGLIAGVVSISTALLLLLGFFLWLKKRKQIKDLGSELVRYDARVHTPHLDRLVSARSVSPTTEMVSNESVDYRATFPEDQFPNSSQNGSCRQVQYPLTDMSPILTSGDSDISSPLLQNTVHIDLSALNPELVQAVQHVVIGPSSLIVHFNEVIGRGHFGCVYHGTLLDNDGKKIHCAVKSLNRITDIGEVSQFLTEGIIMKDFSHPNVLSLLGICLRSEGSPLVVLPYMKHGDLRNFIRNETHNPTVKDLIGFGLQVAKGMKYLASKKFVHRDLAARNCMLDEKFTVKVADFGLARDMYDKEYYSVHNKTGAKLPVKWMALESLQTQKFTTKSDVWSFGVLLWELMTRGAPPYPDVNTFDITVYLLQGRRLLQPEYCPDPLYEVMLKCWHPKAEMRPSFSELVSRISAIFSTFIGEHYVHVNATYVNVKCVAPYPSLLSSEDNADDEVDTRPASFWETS
Procedure: Kinase assays can be performed by measurement of incorporation of γ-^33P ATP into immobilized myelin basic protein (MBP). High binding white 384 well plates (Greiner) are coated with MBP (Sigma #M-1891) by incubation of 60 μL/well of 20 μg/mL MBP in Tris-buffered saline (TBS; 50 mM Tris pH 8.0, 138 mM NaCl, 2.7 mM KCl) for 24 h at 4° C. Plates are washed 3× with 100 μL TBS. Kinase reactions are carried out in a total volume of 34 μL in kinase buffer (5 mM Hepes pH 7.6, 15 mM NaCl, 0.01% bovine gamma globulin (Sigma #I-5506), 10 mM MgCl2, 1 mM DTT, 0.02% TritonX-100). Compound dilutions are performed in DMSO and added to assay wells to a final DMSO concentration of 1%. Each data point is measured in duplicate, and at least two duplicate assays are performed for each individual compound determination. Enzyme is added to final concentrations of 10 nM or 20 nM, for example. A mixture of unlabeled ATP and γ-^33P ATP is added to start the reaction (2×10^6 cpm of γ-^33P ATP per well (3000 Ci/mmole) and 10 μM unlabeled ATP, typically. The reactions are carried out for 1 h at room temperature with shaking. Plates are washed 7× with TBS, followed by the addition of 50 μL/well scintillation fluid (Wallac). Plates are read using a Wallac Trilux counter. This is only one format of such assays; various other formats are possible, as known to one skilled in the art.
as §1
as §2, with “Met” for “Axl”, “KKKSPGEYVNIEFG,” for “KKSRGDYMTMQIG,”
as §3

| IC50 [1] [nM] | IC50 [2] [nM] | IC50 [3] [nM] | Structure (SMILES) |
| --- | --- | --- | --- |
| 19 | 4 | 15 | O=C(Nc1ccc(Oc2ccnc(NC(=O)C3CC3)c2)c(F)c1)c1c2n(n(-c3ccccc3)c1=O)CCC2 [Ex. 5, N-(4-((2-(cyclopropanecarboxamido)pyridin-4-yl)oxy)-3-fluorophenyl)-2-oxo-1-phenyl-2,4,5,6-tetrahydro-1H-pyrrolo[1,2-b]pyrazole-3-carboxamide] |
| 36 | 33 | 57 | CC(=O)Nc1cc(Oc2ccc(NC(=O)c3c4n(n(-c5ccccc5)c3=O)CCC4)cc2F)ccn1 [Ex. 6, N-(4-((2-acetamidopyridin-4-yl)oxy)-3-fluorophenyl)-2-oxo-1-phenyl-2,4,5,6-tetrahydro-1H-pyrrolo[1,2-b]pyrazole-3-carboxamide] |
| 7 | 3 | 5 | O=C(Nc1ccc(Oc2ccnc(NC(=O)C3CC3)c2)cn1)c1c2n(n(-c3ccccc3)c1=O)CCCC2 [Ex. 8, N-(5-((2-(cyclopropanecarboxamido)pyridin-4-yl)oxy)pyridin-2-yl)-2-oxo-1-phenyl-1,2,4,5,6,7-hexahydropyrazolo[1,5-a]pyridine-3-carboxamide] |
| 14 | 12 | 27 | CC(=O)Nc1cc(Oc2ccc(NC(=O)c3c4n(n(-c5ccccc5)c3=O)CCCC4)nc2)ccn1 [Ex. 9, N-(5-((2-acetamidopyridin-4-yl)oxy)pyridin-2-yl)-2-oxo-1-phenyl-1,2,4,5,6,7-hexahydropyrazolo[1,5-a]pyridine-3-carboxamide] |
| 5 | 6 | 12 | O=C(Nc1ccc(Oc2ccnc(NC(=O)C3CC3)c2)cn1)c1c2n(n(-c3ccccc3)c1=O)CCOC2 [Ex. 11, N-(5-((2-(cyclopropanecarboxamido)pyridin-4-yl)oxy)pyridin-2-yl)-2-oxo-1-phenyl-2,4,6,7-tetrahydro-1H-pyrazolo[5,1-c][1,4]oxazine-3-carboxamide] |
| 5 | – | 8 | O=C(Nc1ccc(Oc2ccnc(NC(=O)C3CC3)c2)c(F)c1)c1c2n(n(-c3ccccc3)c1=O)CCOC2 [Ex. 17, N-(4-((2-(cyclopropanecarboxamido)pyridin-4-yl)oxy)-3-fluorophenyl)-2-oxo-1-phenyl-2,4,6,7-tetrahydro-1H-pyrazolo[5,1-c][1,4]oxazine-3-carboxamide] |
| 49 | 44 | – | CC(=O)Nc1cc(Oc2ccc(NC(=O)c3c4n(n(-c5ccccc5)c3=O)CCOC4)cc2)ccn1 [Ex. 20, N-(4-((2-acetamidopyridin-4-yl)oxy)phenyl)-2-oxo-1-phenyl-2,4,6,7-tetrahydro-1H-pyrazolo[5,1-c][1,4]oxazine-3-carboxamide] |
| 9 | – | 14 | Nc1nccc(Oc2ccc(NC(=O)c3c4n(n(-c5ccccc5)c3=O)CCCC4)nc2)c1Cl [Ex. 21, N-(5-((2-amino-3-chloropyridin-4-yl)oxy)pyridin-2-yl)-2-oxo-1-phenyl-1,2,4,5,6,7-hexahydropyrazolo[1,5-a]pyridine-3-carboxamide] |
| 16 | – | 54 | Nc1nccc(Oc2ccc(NC(=O)c3c4n(n(-c5ccccc5)c3=O)CCCC4)cc2)c1Cl [Ex. 22, N-(4-((2-amino-3-chloropyridin-4-yl)oxy)phenyl)-2-oxo-1-phenyl-1,2,4,5,6,7-hexahydropyrazolo[1,5-a]pyridine-3-carboxamide] |
| 10 | 14 | 30 | Nc1nccc(Oc2ccc(NC(=O)c3c4n(n(-c5ccccc5)c3=O)CCCC4)cc2F)c1Cl [Ex. 23, N-(4-((2-amino-3-chloropyridin-4-yl)oxy)-3-fluorophenyl)-2-oxo-1-phenyl-1,2,4,5,6,7-hexahydropyrazolo[1,5-a]pyridine-3-carboxamide] |
